Data published in patent US20240327364A1, “THERAPEUTIC TARGETING OF GPR68 TO INDUCE FERROPTOSIS” (University Of Maryland, Baltimore, priority 2023, published 2024).

Tests used:
[1] = molecular target: T1, ACVR1B (Homo sapiens, UniProt P36896); assay: KinomeScan; format: binding; conditions: read-out: % Control
T1 construct: purchased DiscoveRx

[2] = molecular target: T2, ACVRLI (Homo sapiens, UniProt P37023); assay: KinomeScan; format: binding; conditions: read-out: % Control
T2 construct: purchased DiscoveRx
T2 sequence (P37023 202-492 limits assumed): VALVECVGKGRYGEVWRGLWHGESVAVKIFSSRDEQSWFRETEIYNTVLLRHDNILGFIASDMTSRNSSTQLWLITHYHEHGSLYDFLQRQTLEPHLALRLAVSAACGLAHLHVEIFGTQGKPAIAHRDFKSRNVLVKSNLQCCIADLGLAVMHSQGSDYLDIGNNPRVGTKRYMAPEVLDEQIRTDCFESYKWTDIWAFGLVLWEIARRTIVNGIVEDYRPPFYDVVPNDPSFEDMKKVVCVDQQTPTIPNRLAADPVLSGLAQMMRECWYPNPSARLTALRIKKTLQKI

[3] = molecular target: T3, AMPK-alpha2 (Homo sapiens, UniProt P54646); assay: KinomeScan; format: binding; conditions: read-out: % Control
T3 construct: purchased DiscoveRx (Fremont, CA)

[4] = molecular target: T4, BRSK2 (Homo sapiens, UniProt Q8IWQ3); assay: KinomeScan; format: binding; conditions: read-out: % Control
T4 construct: purchased DiscoveRx (KinomeScan service)

[5] = molecular target: T5, FLT3 (Homo sapiens, UniProt P36888); assay: KinomeScan; format: binding; conditions: read-out: % Control
T5 construct: purchased DiscoveRx (Fremont, CA)

[6] = molecular target: T6, GRK7 (Homo sapiens, UniProt Q8WTQ7); assay: KinomeScan; format: binding; conditions: read-out: % Control
T6 construct: purchased DiscoveRx (Fremont, CA)

[7] = molecular target: T7, HIPK2 (Homo sapiens, UniProt Q9H2X6); assay: KinomeScan; format: binding; conditions: read-out: % Control
T7 construct: purchased DiscoveRx (Fremont, CA)
T7 sequence (Q9H2X6 whole entry): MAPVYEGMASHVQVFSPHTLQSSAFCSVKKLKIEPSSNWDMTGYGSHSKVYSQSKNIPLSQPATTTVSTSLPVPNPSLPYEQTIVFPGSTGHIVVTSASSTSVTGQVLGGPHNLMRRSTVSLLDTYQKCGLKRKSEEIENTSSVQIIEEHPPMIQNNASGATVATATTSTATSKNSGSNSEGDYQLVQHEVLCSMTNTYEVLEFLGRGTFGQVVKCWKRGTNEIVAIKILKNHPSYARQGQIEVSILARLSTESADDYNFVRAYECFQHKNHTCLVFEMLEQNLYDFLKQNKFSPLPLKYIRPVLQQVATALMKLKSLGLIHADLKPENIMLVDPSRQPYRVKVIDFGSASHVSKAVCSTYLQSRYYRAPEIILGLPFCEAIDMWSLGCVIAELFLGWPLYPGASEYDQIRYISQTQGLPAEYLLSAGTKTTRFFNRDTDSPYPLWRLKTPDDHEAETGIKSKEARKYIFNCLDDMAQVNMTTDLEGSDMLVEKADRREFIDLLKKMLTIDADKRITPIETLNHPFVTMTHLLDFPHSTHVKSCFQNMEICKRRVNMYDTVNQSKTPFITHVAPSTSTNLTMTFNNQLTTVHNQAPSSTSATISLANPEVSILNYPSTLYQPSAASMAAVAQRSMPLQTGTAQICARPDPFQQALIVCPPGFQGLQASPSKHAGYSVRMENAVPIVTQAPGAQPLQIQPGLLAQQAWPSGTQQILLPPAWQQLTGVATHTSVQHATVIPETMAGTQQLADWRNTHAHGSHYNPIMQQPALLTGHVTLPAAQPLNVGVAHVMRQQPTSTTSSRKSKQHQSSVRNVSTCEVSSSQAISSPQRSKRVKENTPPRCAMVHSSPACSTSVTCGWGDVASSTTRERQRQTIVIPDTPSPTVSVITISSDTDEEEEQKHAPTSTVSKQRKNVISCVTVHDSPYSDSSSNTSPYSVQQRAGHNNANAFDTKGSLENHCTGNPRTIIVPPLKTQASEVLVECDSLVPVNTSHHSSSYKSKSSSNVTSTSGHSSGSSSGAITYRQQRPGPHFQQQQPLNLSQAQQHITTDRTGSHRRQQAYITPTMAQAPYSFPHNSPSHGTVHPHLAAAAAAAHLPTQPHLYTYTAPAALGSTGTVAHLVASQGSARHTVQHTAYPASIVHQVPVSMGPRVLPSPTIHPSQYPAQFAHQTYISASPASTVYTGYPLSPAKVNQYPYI

[8] = molecular target: T8, LRRK2(G2019S) (Homo sapiens, UniProt Q5S007, G2019S); assay: KinomeScan; format: binding; conditions: read-out: % Control
T8 construct: purchased DiscoveRx

[9] = molecular target: T9, RIPK5 (Homo sapiens, UniProt Q6XUX3); assay: KinomeScan; format: binding; conditions: read-out: % Control
T9 construct: purchased DiscoveRx (Fremont, CA)
T9 sequence (Q6XUX3 whole entry): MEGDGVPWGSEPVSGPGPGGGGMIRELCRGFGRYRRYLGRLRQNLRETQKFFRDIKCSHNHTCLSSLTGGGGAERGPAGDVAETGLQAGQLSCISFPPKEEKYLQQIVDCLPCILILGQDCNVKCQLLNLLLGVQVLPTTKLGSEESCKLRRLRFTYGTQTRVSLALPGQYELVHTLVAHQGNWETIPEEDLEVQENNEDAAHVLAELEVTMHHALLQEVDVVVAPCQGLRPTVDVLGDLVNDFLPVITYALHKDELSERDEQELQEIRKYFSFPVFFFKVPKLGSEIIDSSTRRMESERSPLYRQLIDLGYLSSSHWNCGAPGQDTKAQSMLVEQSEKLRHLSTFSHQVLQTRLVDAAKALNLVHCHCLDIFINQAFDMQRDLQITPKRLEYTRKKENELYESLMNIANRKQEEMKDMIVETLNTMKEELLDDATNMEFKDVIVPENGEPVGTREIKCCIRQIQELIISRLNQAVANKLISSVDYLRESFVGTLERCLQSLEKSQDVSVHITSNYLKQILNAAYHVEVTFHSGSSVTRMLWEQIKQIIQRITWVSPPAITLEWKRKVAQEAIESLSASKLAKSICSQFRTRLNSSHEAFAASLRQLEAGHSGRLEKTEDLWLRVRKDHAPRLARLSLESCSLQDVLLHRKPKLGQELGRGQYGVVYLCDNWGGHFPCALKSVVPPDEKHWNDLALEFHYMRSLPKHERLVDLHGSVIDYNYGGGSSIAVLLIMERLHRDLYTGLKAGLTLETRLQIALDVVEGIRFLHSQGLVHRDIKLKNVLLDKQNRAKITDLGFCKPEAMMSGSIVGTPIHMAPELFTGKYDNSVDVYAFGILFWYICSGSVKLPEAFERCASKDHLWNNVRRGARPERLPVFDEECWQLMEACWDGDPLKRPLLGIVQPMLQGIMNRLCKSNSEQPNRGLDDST

[10] = molecular target: T10, YSK4 (Homo sapiens, UniProt Q56UN5); assay: KinomeScan; format: binding; conditions: read-out: % Control
T10 construct: purchased DiscoveRx
T10 sequence (Q56UN5 whole entry): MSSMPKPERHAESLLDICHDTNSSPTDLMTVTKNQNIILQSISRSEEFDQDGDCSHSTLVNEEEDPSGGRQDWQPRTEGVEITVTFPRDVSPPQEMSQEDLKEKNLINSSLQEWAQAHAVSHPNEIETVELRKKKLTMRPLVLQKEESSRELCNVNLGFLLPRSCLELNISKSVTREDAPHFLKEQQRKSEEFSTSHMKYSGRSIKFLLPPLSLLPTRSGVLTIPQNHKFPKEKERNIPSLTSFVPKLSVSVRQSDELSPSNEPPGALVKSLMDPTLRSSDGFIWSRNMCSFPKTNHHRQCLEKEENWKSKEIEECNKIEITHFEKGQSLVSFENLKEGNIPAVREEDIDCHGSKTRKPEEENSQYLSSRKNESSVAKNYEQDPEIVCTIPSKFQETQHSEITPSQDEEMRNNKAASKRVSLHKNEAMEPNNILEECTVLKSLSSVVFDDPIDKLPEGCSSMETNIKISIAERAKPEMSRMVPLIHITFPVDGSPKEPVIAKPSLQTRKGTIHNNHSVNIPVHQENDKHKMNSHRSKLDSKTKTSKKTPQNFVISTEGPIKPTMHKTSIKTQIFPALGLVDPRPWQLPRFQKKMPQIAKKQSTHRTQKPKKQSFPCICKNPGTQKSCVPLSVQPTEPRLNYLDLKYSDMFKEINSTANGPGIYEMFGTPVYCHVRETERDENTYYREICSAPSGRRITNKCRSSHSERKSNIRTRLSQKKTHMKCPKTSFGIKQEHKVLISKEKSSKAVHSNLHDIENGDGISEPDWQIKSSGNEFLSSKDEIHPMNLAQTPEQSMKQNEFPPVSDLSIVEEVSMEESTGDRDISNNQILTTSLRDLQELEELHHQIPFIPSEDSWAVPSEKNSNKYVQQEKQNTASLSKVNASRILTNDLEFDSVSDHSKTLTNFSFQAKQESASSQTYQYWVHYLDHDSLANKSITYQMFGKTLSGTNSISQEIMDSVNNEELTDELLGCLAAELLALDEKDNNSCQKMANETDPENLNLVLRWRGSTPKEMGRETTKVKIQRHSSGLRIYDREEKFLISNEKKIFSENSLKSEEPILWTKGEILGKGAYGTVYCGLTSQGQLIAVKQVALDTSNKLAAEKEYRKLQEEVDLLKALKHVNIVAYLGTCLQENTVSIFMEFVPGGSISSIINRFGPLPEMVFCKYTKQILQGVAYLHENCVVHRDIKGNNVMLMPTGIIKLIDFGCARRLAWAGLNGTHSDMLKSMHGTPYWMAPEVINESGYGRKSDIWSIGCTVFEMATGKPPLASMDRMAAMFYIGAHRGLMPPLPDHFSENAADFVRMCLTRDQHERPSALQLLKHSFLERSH

[11] = molecular target: T11, GAL1 (Homo sapiens, UniProt P47211); assay: GPCR Profiler; format: cell-based
T11 construct: host or cells: Chem-1 cells expressing Gα15
T11 sequence (P47211 whole entry): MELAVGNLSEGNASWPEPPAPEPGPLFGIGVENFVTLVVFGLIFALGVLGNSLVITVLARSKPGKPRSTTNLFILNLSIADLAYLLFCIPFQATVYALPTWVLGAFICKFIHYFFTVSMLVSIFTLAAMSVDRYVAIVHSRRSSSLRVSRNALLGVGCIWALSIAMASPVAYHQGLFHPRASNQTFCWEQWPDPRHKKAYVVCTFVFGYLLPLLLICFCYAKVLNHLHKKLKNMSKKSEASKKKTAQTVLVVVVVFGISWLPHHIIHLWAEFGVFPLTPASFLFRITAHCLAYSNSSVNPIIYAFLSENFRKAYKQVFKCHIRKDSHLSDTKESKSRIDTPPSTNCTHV

[12] = molecular target: T12, M5 (Homo sapiens, UniProt P08912); assay: GPCR Profiler; format: cell-based
T12 construct: host or cells: Chem-1 cells with promiscuous Gα15
T12 sequence (P08912 whole entry): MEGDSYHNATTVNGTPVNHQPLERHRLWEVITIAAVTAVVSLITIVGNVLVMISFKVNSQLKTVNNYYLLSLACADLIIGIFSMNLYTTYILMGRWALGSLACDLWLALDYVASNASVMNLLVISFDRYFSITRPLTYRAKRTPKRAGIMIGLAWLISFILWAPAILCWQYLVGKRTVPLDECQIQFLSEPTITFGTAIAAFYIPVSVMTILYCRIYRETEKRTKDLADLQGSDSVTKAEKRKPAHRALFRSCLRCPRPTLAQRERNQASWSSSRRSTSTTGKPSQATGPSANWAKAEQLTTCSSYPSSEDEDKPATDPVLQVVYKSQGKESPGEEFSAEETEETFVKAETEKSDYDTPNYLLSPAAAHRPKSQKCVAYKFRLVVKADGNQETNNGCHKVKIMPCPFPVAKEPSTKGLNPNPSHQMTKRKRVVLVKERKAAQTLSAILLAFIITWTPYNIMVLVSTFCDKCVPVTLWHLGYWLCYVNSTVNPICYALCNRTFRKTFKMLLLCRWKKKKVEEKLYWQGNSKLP

[13] = tested on: MCF7; assay: Cell Titer-Glo viability, Breast adenocarcinoma; format: cell-based
Description: (§1) OGM2 kills wide variety of cancer cell types. Cell sensitivity can be classified in to Very Sensitive (LC50<2 μM), Sensitive (LC50=2 to 10 μM), Mildly Sensitive (LC50>10 μM), and Refractory (no killing at 10 μM). The listed established cell were incubated with OGM2 at 2 μM or 10 μM for 72 hours under standard cell culture conditions, and relative cell number was assessed using Cell Titer-Glo Luminescent Cell Viability Assay (Promega™) following the manufacturer's instructions. Luminescence was determined using a Cytation 5 reader and Gen5 software package (BioTek™).
(§2) Cancer cells, which are very sensitive to killing by OGM2 (LCs <2 μM), with reported mRNA expression of GPR68 and the related proton sensing receptor GPR4. LC50's (concentrations causing 50% lethality) were determined using CellTiter-Glo (Promega™, G7570). Cells were plated in 12-well plates (CELLTREAT Scientific Products, 229112) in 1 ml of DMEM with high glucose, GlutaMAX, HEPES, or RPMI 1640 with Penicillin-Streptomycin (ThermoFisher™, 10564029, 11875119 and 15140122) and 10% FBS. Cells were incubated overnight at 37° C. in 5% CO2. Then 1 mL of fresh media was added with DMSO, OGM, or positive control (Erastin; APExBIO Technology, LLC, B1524) and cells incubated for 3 days. On the third day, all media was removed, cells were rinsed with 1×PBS, PBS was removed, and 200 μL of 1× Passive Lysis Buffer (Promega™, E1941) was added to each well. […]. Subsequently, 20 μL of lysate was added to 100 μL CellTiter-Glo™ reagent on a LUMITRAC 200 plate (Greiner™ bio-one, 82050-726). Plates were briefly spun down and read on a GloMax-Multi Detection System (Promega™).
(§3) The cells listed in the tables above were incubated with OGM2 at 2 μM or 10 μM for 72 hours under standard cell culture conditions, and relative cell number was assessed using Cell Titer-Glo Luminescent Cell Viability Assay (Promega™) following the manufacturer's instructions. Luminescence was determined using a Cytation 5 reader and Gen5 software package (BioTek™). RNA expression of GPR68 and GPR4 in the corresponding cancer cell lines are listed, according to the publicly available The Human Protein Atlas version 22.0 and Ensembl version 103.38 (see proteinatlas.org). The consensus normalized expression value (“nTPM”=normalize transcript per million) was calculated as the maximum nTPM value for each gene in the two data sources.

[14] = tested on: MDA-MB-231; assay: Cell Titer-Glo viability, Breast adenocarcinoma; format: cell-based
Description: as §1, §2, §3

[15] = tested on: MDA-MB-436; assay: Cell Titer-Glo viability, Breast adenocarcinoma; format: cell-based
Description: as §1, §2, §3

[16] = tested on: A549; assay: Cell Titer-Glo viability, Lung Adenocarcinoma; format: cell-based; conditions: 72 hours
Description: as §1
as §2, with “Subsequently, 20 μL of lysate was added to 100 μL CellTiter-Glo™ reagent on a LUMITRAC 200 plate (Greiner™ bio-one, 82050-726).” left out
The cells listed in the tables above were incubated with OGM2 at 2 μM or 10 μM for 72 hours under standard cell culture conditions, and relative cell number was assessed using Cell Titer-Glo Luminescent Cell Viability Assay (Promega™) following the manufacturer's instructions. Luminescence was determined using a Cytation 5 reader and Gen5 software package (BioTek™). […] The consensus normalized expression value (“nTPM”=normalize transcript per million) was calculated as the maximum nTPM value for each gene in the two data sources.

[17] = tested on: Panc02; assay: Liperfluo lipid peroxidation; format: cell-based, mouse; conditions: OGM2 and ionizing radiation
Description: Where appropriate, ANOVA, or student's T-test were conducted in PRISM. Chi squared T(X) was used for Liperfluo analysis. A value T(X)>4 implies that the two distributions are different with a p<0.01 (99% confidence). For drug interaction and therapeutic interaction, the coefficient of drug interaction (CDI) was calculated as follows: CDI=AB/(A×B). According to the impact of each group, AB is the value of combined treatment and A or B is the value of the single agent group to control group.
Radiation, like OGM2, induces lipid peroxidation in addition to DNA damage. OGM was tested for its ability to sensitize lung and pancreatic cancers to radiation induced lipid peroxidation and ferroptosis. Cells were incubated at 37° C. in 5% CO2 in […] DMEM with DMSO, OGM2, or Erastin for 3 days. Then 2.5 μM Liperfluo in 3 ml fresh media was added and cells were incubated at 37° C. in 5% CO2 for 1 hour. Cells were then trypsinized, pelleted, and resuspended in cell sorting media (1% BSA and 1 mM EDTA in PBS pH 7.4). A BD LSR II was used to record Ten thousand events and the data processed with FlowJo v10.8. […] All treatments were highly significant with Chi-squared >4 indicating a p<0.01.

T1 sequence (P36896 207-497 limits assumed): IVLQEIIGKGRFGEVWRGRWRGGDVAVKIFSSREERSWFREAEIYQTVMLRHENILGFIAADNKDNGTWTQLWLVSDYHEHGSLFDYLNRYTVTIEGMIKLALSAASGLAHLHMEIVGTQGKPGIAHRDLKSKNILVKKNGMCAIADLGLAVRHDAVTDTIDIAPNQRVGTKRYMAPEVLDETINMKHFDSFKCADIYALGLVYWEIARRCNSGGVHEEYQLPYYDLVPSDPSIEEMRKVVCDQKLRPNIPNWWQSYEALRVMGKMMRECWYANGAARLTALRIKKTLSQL

CCc1ccc2c(c1)C1(NN=C(c3cccc4ccccc34)S1)C(=O)N2 (stereo not drawn) [OGM1, 5-ethyl-5′-naphthalen-1-ylspiro[1H-indole-3,2′-3H-1,3,4-thiadiazole]-2-one]
remaining binding at 10 µM [1]: 100% | remaining binding at 10 µM [2]: 100% | remaining binding at 10 µM [3]: 100% | remaining binding at 10 µM [4]: 100% | remaining binding at 10 µM [5]: 79% | remaining binding at 10 µM [6]: 73% | remaining binding at 10 µM [7]: 100% | remaining binding at 10 µM [8]: 100% | remaining binding at 10 µM [9]: 56% | remaining binding at 10 µM [10]: 100% | Antagonism ([11]; 10 uM): −7.3 | Agonism ([11]; 12.5 uM): 1.6 | Antagonism ([12]; 10 uM): 3.4 | Agonism ([12]; 12.5 uM): −0.6

CCc1ccc2c(c1)C1(NN=C(c3ccccc3)S1)C(=O)N2 (stereo not drawn) [OGM2]
Class [13]: Sensitive (Sensitive (LC50=2 to 10 μM)) | % Survival 2 μM OGM ([13]; 72 hours): 50.6% | % Survival 10 μM OGM ([13]; 72 hours): 25.2% | CC50 ([13]; Homo sapiens, MCF7, 72 hours, read-out: LC50 (the source's name)): 2000 to 10000 nM | Class [14]: Sensitive (Sensitive (LC50=2 to 10 μM)) | % Survival 2 μM OGM ([14]; 72 hours): 70.1% | % Survival 10 μM OGM ([14]; 72 hours): 48.1% | CC50 ([14]; Homo sapiens, MDA-MB-231, 72 hours, read-out: LC50 (the source's name)): 2000 to 10000 nM | Class [15]: Sensitive (Sensitive (LC50=2 to 10 μM)) | % Survival 2 μM OGM ([15]; 72 hours): 52.6% | % Survival 10 μM OGM ([15]; 72 hours): 35.7% | CC50 ([15]; Homo sapiens, MDA-MB-436, 72 hours, read-out: LC50 (the source's name)): 2000 to 10000 nM | % Survival 2 μM OGM [16]: 33.6% | % Survival 10 μM OGM [16]: 18.0% | CC50 ([16]; Homo sapiens, A549, read-out: LC50 (the source's name)): < 2000 nM | CDI, lipid peroxidation [17]: < 0.232
